Laboratory results: publication PMC5218480 (PLoS ONE, 2017)

Test system: MV-4-11 cells
Test: Gene expression microarray analysis (Affymetrix PrimeView) and GSEA
Assay type: cell-based, human
Parameters: RFU PODN (11730768_x_at) / Fold change /veh PODN (11730768_x_at) / RFU LINC00158 (11744669_a_at) / Fold change /veh LINC00158 (11744669_a_at) / RFU DUSP10 (11751237_a_at) / Fold change /veh DUSP10 (11751237_a_at) / RFU ID3 (11757404_x_at) / Fold change /veh ID3 (11757404_x_at) / RFU PLEKHG5 (11737974_s_at) / Fold change /veh PLEKHG5 (11737974_s_at) / RFU LRRC4B (11730491_at) / Fold change /veh LRRC4B (11730491_at) / RFU GIMAP4 (11747438_a_at) / Fold change /veh GIMAP4 (11747438_a_at) / RFU KRT8 (11758183_x_at) / Fold change /veh KRT8 (11758183_x_at) / RFU CNN1 (11734310_a_at) / Fold change /veh CNN1 (11734310_a_at) / RFU VPS37D (11726825_at) / Fold change /veh VPS37D (11726825_at) / RFU C10orf10 (11716522_x_at) / Fold change /veh C10orf10 (11716522_x_at) / RFU KIR2DL2 /// KIR2DL4 /// KIR2DL5A /// KIR2DL5B /// KIR2DS1 /// KIR2DS2 /// KIR2DS3 /// KIR2DS4 /// KIR3DL3 /// KIR3DL3 /// KIR3DS1 (11738374_at) / Fold change /veh KIR2DL2 /// KIR2DL4 /// KIR2DL5A /// KIR2DL5B /// KIR2DS1 /// KIR2DS2 /// KIR2DS3 /// KIR2DS4 /// KIR3DL3 /// KIR3DL3 /// KIR3DS1 (11738374_at) / RFU C1QL1 (11718748_at) / Fold change /veh C1QL1 (11718748_at) / RFU TMPRSS4 (11747572_a_at) / Fold change /veh TMPRSS4 (11747572_a_at) / RFU HAMP (11756126_x_at) / Fold change /veh HAMP (11756126_x_at) / RFU RNFT2 (11725882_a_at) / Fold change /veh RNFT2 (11725882_a_at) / RFU NR4A2 (11747474_a_at) / Fold change /veh NR4A2 (11747474_a_at) / RFU ABCC12 (11746883_a_at) / Fold change /veh ABCC12 (11746883_a_at) / RFU TMEM136 (11760407_x_at) / Fold change /veh TMEM136 (11760407_x_at) / RFU CLDN22 /// WWC2 (11732394_at) / Fold change /veh CLDN22 /// WWC2 (11732394_at) / RFU HLA-DPB1 (11760878_x_at) / Fold change /veh HLA-DPB1 (11760878_x_at) / RFU SPINT1 (11716480_a_at) / Fold change /veh SPINT1 (11716480_a_at) / RFU GAP43 (11754022_s_at) / Fold change /veh GAP43 (11754022_s_at) / RFU A4GNT (11735810_at) / Fold change /veh A4GNT (11735810_at) / RFU PRB3 (11715151_x_at) / Fold change /veh PRB3 (11715151_x_at) / RFU TUBB4B (11761932_at) / Fold change /veh TUBB4B (11761932_at) / RFU CAPN14 (11732068_a_at) / Fold change /veh CAPN14 (11732068_a_at) / RFU TMCC2 (11721928_a_at) / Fold change /veh TMCC2 (11721928_a_at) / RFU IRGQ (11745062_a_at) / Fold change /veh IRGQ (11745062_a_at) / RFU FAM174B (11720279_a_at) / Fold change /veh FAM174B (11720279_a_at) / RFU TMPRSS4 (11748680_a_at) / Fold change /veh TMPRSS4 (11748680_a_at) / RFU FAM212B (11763350_a_at) / Fold change /veh FAM212B (11763350_a_at) / RFU PLEKHG5 (11743358_a_at) / Fold change /veh PLEKHG5 (11743358_a_at) / RFU ZSCAN30 (11745921_a_at) / Fold change /veh ZSCAN30 (11745921_a_at) / RFU CMKLR1 (11741424_a_at) / Fold change /veh CMKLR1 (11741424_a_at) / RFU LOC101060620 /// MAPK8IP1 (11723275_at) / Fold change /veh LOC101060620 /// MAPK8IP1 (11723275_at) / RFU SPTSSB (11747773_x_at) / Fold change /veh SPTSSB (11747773_x_at) / RFU PRSS12 (11739890_at) / Fold change /veh PRSS12 (11739890_at) / RFU BIN1 (11741810_x_at) / Fold change /veh BIN1 (11741810_x_at) / RFU WNT11 (11732464_a_at) / Fold change /veh WNT11 (11732464_a_at) / RFU C10orf10 (11716521_a_at) / Fold change /veh C10orf10 (11716521_a_at) / RFU C5orf56 (11738089_at) / Fold change /veh C5orf56 (11738089_at) / RFU CYB561 (11721691_x_at) / Fold change /veh CYB561 (11721691_x_at) / RFU ANKRD19P (11752326_a_at) / Fold change /veh ANKRD19P (11752326_a_at) / RFU OR2T12 /// OR2T33 /// OR2T8 (11738714_s_at) / Fold change /veh OR2T12 /// OR2T33 /// OR2T8 (11738714_s_at) / RFU VCAN (11748164_a_at) / Fold change /veh VCAN (11748164_a_at) / RFU JSRP1 (11732532_at) / Fold change /veh JSRP1 (11732532_at) / RFU KRTAP10-11 (11738290_x_at) / Fold change /veh KRTAP10-11 (11738290_x_at) / RFU MYO3A (11730013_a_at) / Fold change /veh MYO3A (11730013_a_at) / RFU EBF3 (11725865_a_at) / Fold change /veh EBF3 (11725865_a_at) / RFU CAMK2N1 (11719241_x_at) / Fold change /veh CAMK2N1 (11719241_x_at) / RFU C5orf56 (11738088_a_at) / Fold change /veh C5orf56 (11738088_a_at) / RFU OLFML3 (11715873_a_at) / Fold change /veh OLFML3 (11715873_a_at) / RFU LOC100653217 /// NTM (11731650_a_at) / Fold change /veh LOC100653217 /// NTM (11731650_a_at) / RFU MAPK11 (11762145_a_at) / Fold change /veh MAPK11 (11762145_a_at) / RFU FIZ1 (11724087_x_at) / Fold change /veh FIZ1 (11724087_x_at) / RFU OASL (11726364_x_at) / Fold change /veh OASL (11726364_x_at) / RFU SOX15 (11748057_x_at) / Fold change /veh SOX15 (11748057_x_at) / RFU CD79A (11719716_a_at) / Fold change /veh CD79A (11719716_a_at) / RFU HIST1H1D (11736915_at) / Fold change /veh HIST1H1D (11736915_at) / RFU CASKIN2 (11723855_a_at) / Fold change /veh CASKIN2 (11723855_a_at) / RFU LOC730098 (11760151_x_at) / Fold change /veh LOC730098 (11760151_x_at) / RFU OR4N2 (11742367_at) / Fold change /veh OR4N2 (11742367_at) / RFU PRRT2 (11749266_a_at) / Fold change /veh PRRT2 (11749266_a_at) / RFU SNX32 (11753110_a_at) / Fold change /veh SNX32 (11753110_a_at) / RFU CDHR5 (11726645_a_at) / Fold change /veh CDHR5 (11726645_a_at) / RFU RCAN1 (11760418_a_at) / Fold change /veh RCAN1 (11760418_a_at) / RFU FAM167A (11723789_a_at) / Fold change /veh FAM167A (11723789_a_at) / RFU FAM26E (11764081_at) / Fold change /veh FAM26E (11764081_at) / RFU ISYNA1 (11749810_s_at) / Fold change /veh ISYNA1 (11749810_s_at) / RFU ACY1 (11761880_at) / Fold change /veh ACY1 (11761880_at) / RFU 11764098_at / Fold change /veh 11764098_at / RFU SAMD14 (11745864_x_at) / Fold change /veh SAMD14 (11745864_x_at) / RFU NPB (11741838_a_at) / Fold change /veh NPB (11741838_a_at) / RFU TMPRSS6 (11731388_a_at) / Fold change /veh TMPRSS6 (11731388_a_at) / RFU KRTAP10-2 (11738614_at) / Fold change /veh KRTAP10-2 (11738614_at) / RFU ARHGAP8 /// PRR5-ARHGAP8 (11727945_x_at) / Fold change /veh ARHGAP8 /// PRR5-ARHGAP8 (11727945_x_at) / RFU KRTAP5-7 /// NADSYN1 (11734609_at) / Fold change /veh KRTAP5-7 /// NADSYN1 (11734609_at) / RFU RASL12 (11751679_a_at) / Fold change /veh RASL12 (11751679_a_at) / RFU CDKN2B (11736163_a_at) / Fold change /veh CDKN2B (11736163_a_at) / RFU PRF1 (11729649_at) / Fold change /veh PRF1 (11729649_at) / RFU, ZNF638 /// ZNF638-IT1 / Fold change vs veh, ZNF638 /// ZNF638-IT1 / RFU, PANK3 / Fold change vs veh, PANK3 / RFU, SH3YL1 / Fold change vs veh, SH3YL1 / RFU, ZEB2 / Fold change vs veh, ZEB2 / RFU, NRIP1 / Fold change vs veh, NRIP1 / RFU, PTTG1IP / Fold change vs veh, PTTG1IP / RFU, CAPN2 / Fold change vs veh, CAPN2 / RFU, MED14 / Fold change vs veh, MED14 / RFU, SNORA58 / Fold change vs veh, SNORA58 / RFU, C1orf63 / Fold change vs veh, C1orf63 / RFU, LRRFIP1 / Fold change vs veh, LRRFIP1 / RFU, NDUFAF7 / Fold change vs veh, NDUFAF7 / RFU, SLC12A2 / Fold change vs veh, SLC12A2 / RFU, IBTK / Fold change vs veh, IBTK / RFU, ESF1 / Fold change vs veh, ESF1 / Fold change vs veh, TMEM50B / RFU, TAOK1 / Fold change vs veh, TAOK1 / RFU, ACBD3 / Fold change vs veh, ACBD3 / RFU, TMA16 / Fold change vs veh, TMA16 / RFU, RWDD3 / Fold change vs veh, RWDD3 / RFU, BCAT1 / Fold change vs veh, BCAT1 / RFU, EDEM3 / Fold change vs veh, EDEM3 / RFU, TMEM33 / Fold change vs veh, TMEM33 / RFU, WDR75 / Fold change vs veh, WDR75 / RFU, AHCTF1 / Fold change vs veh, AHCTF1 / RFU, TFRC / Fold change vs veh, TFRC / RFU, ZDHHC17 / Fold change vs veh, ZDHHC17 / RFU, NOM1 / Fold change vs veh, NOM1 / RFU, ARL8B / Fold change vs veh, ARL8B / RFU, ZBTB11 / Fold change vs veh, ZBTB11 / RFU, TAMM41 / Fold change vs veh, TAMM41 / RFU, KIAA1704 /// LOC100996395 / Fold change vs veh, KIAA1704 /// LOC100996395 / RFU, ING1 / Fold change vs veh, ING1 / RFU, TRMT61B / Fold change vs veh, TRMT61B / RFU, FUBP3 / Fold change vs veh, FUBP3 / RFU, TP53 / Fold change vs veh, TP53 / RFU, TNKS2 / Fold change vs veh, TNKS2 / RFU, ZFP14 / Fold change vs veh, ZFP14 / RFU, ACTR2 / Fold change vs veh, ACTR2 / RFU, PPP3R1 / Fold change vs veh, PPP3R1 / RFU, PIK3R1 / Fold change vs veh, PIK3R1 / RFU, HNRNPA1 / Fold change vs veh, HNRNPA1 / RFU, RNF170 / Fold change vs veh, RNF170 / RFU, ZNF28 / Fold change vs veh, ZNF28 / RFU, RNGTT / Fold change vs veh, RNGTT / RFU, OGT / Fold change vs veh, OGT / RFU, BRD1 / Fold change vs veh, BRD1 / RFU, MARS / Fold change vs veh, MARS / RFU, ZNF655 / Fold change vs veh, ZNF655 / RFU, FAHD1 / Fold change vs veh, FAHD1 / RFU, BDP1 / Fold change vs veh, BDP1 / RFU, LRRCC1 / Fold change vs veh, LRRCC1 / RFU, ARID1A / Fold change vs veh, ARID1A / RFU, ZNF146 / Fold change vs veh, ZNF146 / RFU, ZNF330 / Fold change vs veh, ZNF330 / RFU, GPN3 / Fold change vs veh, GPN3 / RFU, C9orf123 / Fold change vs veh, C9orf123 / RFU, N4BP2L2 / Fold change vs veh, N4BP2L2 / RFU, ARFIP1 / Fold change vs veh, ARFIP1 / RFU, FAM179B / Fold change vs veh, FAM179B / RFU, BCL10 / Fold change vs veh, BCL10 / RFU, UHRF1BP1L / Fold change vs veh, UHRF1BP1L / RFU, BET1 / Fold change vs veh, BET1 / RFU, CNOT2 / Fold change vs veh, CNOT2 / RFU, ZNF268 / Fold change vs veh, ZNF268 / Fold change vs veh, ZNF507 / RFU, DGCR2 / Fold change vs veh, DGCR2 / RFU, WDSUB1 / Fold change vs veh, WDSUB1 / Fold change vs veh, HSP90B1 /// MIR3652 / RFU, ADSS / Fold change vs veh, ADSS / RFU, GK / Fold change vs veh, GK / RFU, ZNF148 / Fold change vs veh, ZNF148 / RFU, TAF9 / Fold change vs veh, TAF9 / RFU, SLC1A5 / Fold change vs veh, SLC1A5 / RFU, SLMO2 / Fold change vs veh, SLMO2 / RFU, ABCC4 / Fold change vs veh, ABCC4 / RFU, LOC101060439 /// RAP1B / Fold change vs veh, LOC101060439 /// RAP1B / RFU, RFX7 / Fold change vs veh, RFX7 / RFU, GTPBP10 / Fold change vs veh, GTPBP10 / RFU, CNEP1R1 / Fold change vs veh, CNEP1R1 / RFU, BIVM-ERCC5 /// ERCC5 / Fold change vs veh, BIVM-ERCC5 /// ERCC5 / RFU, ILF3 / Fold change vs veh, ILF3 / RFU 11762660_at / Fold change /veh 11762660_at / RFU VCAN (11757783_s_at) / Fold change /veh VCAN (11757783_s_at) / RFU DDX43 (11728927_at) / Fold change /veh DDX43 (11728927_at) / RFU KRT8 (11758188_x_at) / Fold change /veh KRT8 (11758188_x_at) / RFU NKD1 (11759106_at) / Fold change /veh NKD1 (11759106_at) / RFU SRD5A1 (11742802_a_at) / Fold change /veh SRD5A1 (11742802_a_at) / RFU TPSAB1 /// TPSB2 (11721975_s_at) / Fold change /veh TPSAB1 /// TPSB2 (11721975_s_at) / RFU GSTM3 (11746129_a_at) / Fold change /veh GSTM3 (11746129_a_at) / RFU IL23R (11737362_x_at) / Fold change /veh IL23R (11737362_x_at) / RFU TMEM51 (11727254_a_at) / Fold change /veh TMEM51 (11727254_a_at) / RFU PIWIL2 (11732686_x_at) / Fold change /veh PIWIL2 (11732686_x_at) / RFU ORM1 (11744905_x_at) / Fold change /veh ORM1 (11744905_x_at) / RFU CCDC152 (11743942_at) / Fold change /veh CCDC152 (11743942_at) / RFU ECM1 (11717891_a_at) / Fold change /veh ECM1 (11717891_a_at) / RFU IL23R (11748794_a_at) / Fold change /veh IL23R (11748794_a_at) / RFU TNFAIP8L3 (11732012_x_at) / Fold change /veh TNFAIP8L3 (11732012_x_at) / RFU MBOAT4 (11741988_at) / Fold change /veh MBOAT4 (11741988_at) / RFU 11764193_at / Fold change /veh 11764193_at / RFU TMEM53 (11763286_at) / Fold change /veh TMEM53 (11763286_at) / RFU MAGEB2 (11727129_at) / Fold change /veh MAGEB2 (11727129_at) / RFU TMEM200A (11744735_a_at) / Fold change /veh TMEM200A (11744735_a_at) / RFU CCDC152 (11751479_a_at) / Fold change /veh CCDC152 (11751479_a_at) / RFU FAM211A (11726209_a_at) / Fold change /veh FAM211A (11726209_a_at) / RFU RGS16 (11746705_a_at) / Fold change /veh RGS16 (11746705_a_at) / RFU VCAN (11755009_s_at) / Fold change /veh VCAN (11755009_s_at) / RFU RHOB (11743442_s_at) / Fold change /veh RHOB (11743442_s_at) / RFU RGS16 (11720943_a_at) / Fold change /veh RGS16 (11720943_a_at) / RFU RGS16 (11720944_at) / Fold change /veh RGS16 (11720944_at) / RFU, VPS4B / Fold change vs veh, VPS4B / RFU, CREB1 / Fold change vs veh, CREB1 / RFU, DNAJC13 / Fold change vs veh, DNAJC13 / RFU, GNAQ / Fold change vs veh, GNAQ / RFU, CDK5R1 / Fold change vs veh, CDK5R1 / RFU, ZRANB3 / Fold change vs veh, ZRANB3 / RFU, CUL4A / Fold change vs veh, CUL4A / RFU, CCNY / Fold change vs veh, CCNY / RFU, UFL1 / Fold change vs veh, UFL1 / RFU, COG3 / Fold change vs veh, COG3 / RFU, DIAPH2 / Fold change vs veh, DIAPH2 / RFU, SKA2 / Fold change vs veh, SKA2 / RFU, AFF3 / Fold change vs veh, AFF3 / RFU, LMF1 / Fold change vs veh, LMF1 / RFU, IPO11 / Fold change vs veh, IPO11 / RFU, DFFB / Fold change vs veh, DFFB / RFU, FOXP1 / Fold change vs veh, FOXP1 / RFU, CARD8 / Fold change vs veh, CARD8 / RFU, STRN3 / Fold change vs veh, STRN3 / RFU, ADK / Fold change vs veh, ADK / RFU, RASSF2 / Fold change vs veh, RASSF2 / RFU, WIPF1 / Fold change vs veh, WIPF1 / RFU, LARP1B / Fold change vs veh, LARP1B / RFU, RASA1 / Fold change vs veh, RASA1 / RFU, RB1 / Fold change vs veh, RB1 / RFU, PPFIA1 / Fold change vs veh, PPFIA1 / RFU, MAT2A / Fold change vs veh, MAT2A / RFU, CCT5 / Fold change vs veh, CCT5 / RFU, WDR92 / Fold change vs veh, WDR92 / RFU, CUX1 / Fold change vs veh, CUX1 / RFU, TTC7A / Fold change vs veh, TTC7A / RFU, TMEM135 / Fold change vs veh, TMEM135 / RFU, DEPTOR / Fold change vs veh, DEPTOR / RFU, CPM / Fold change vs veh, CPM / RFU, DNAJB6 / Fold change vs veh, DNAJB6 / RFU, CACNA2D3 / Fold change vs veh, CACNA2D3 / RFU, DTX4 / Fold change vs veh, DTX4 / RFU, TFCP2 / Fold change vs veh, TFCP2 / RFU, GMCL1 /// GMCL1P1 / Fold change vs veh, GMCL1 /// GMCL1P1 / RFU, AEBP2 / Fold change vs veh, AEBP2 / RFU, SNHG1 /// SNORD22 /// SNORD25 /// SNORD26 /// SNORD27 /// SNORD28 /// SNORD29 /// SNORD31 / Fold change vs veh, SNHG1 /// SNORD22 /// SNORD25 /// SNORD26 /// SNORD27 /// SNORD28 /// SNORD29 /// SNORD31 / Fold change (Aza/veh), C12orf56 (ProbeSet 11735607_a_at) / Fold change (ACY-1035/veh), C12orf56 (ProbeSet 11735607_a_at) / Fold change (Aza/veh), FGFR1OP (ProbeSet 11751329_s_at) / Fold change (ACY-1035/veh), FGFR1OP (ProbeSet 11751329_s_at) / Fold change (Aza/veh), VPS36 (ProbeSet 11739960_a_at) / Fold change (ACY-1035/veh), VPS36 (ProbeSet 11739960_a_at) / RFU SYPL1 (11715823_x_at) / Fold change /veh SYPL1 (11715823_x_at) / RFU IGFBP7 (11715501_s_at) / Fold change /veh IGFBP7 (11715501_s_at) / RFU REEP3 (11722064_at) / Fold change /veh REEP3 (11722064_at) / RFU IGLL1 (11728026_x_at) / Fold change /veh IGLL1 (11728026_x_at): dose or concentration left out as unconfirmed
Details: ProbeSet 11725902_s_at; LIST D

SMILES: Nc1ccc(-c2cccs2)cc1NC(=O)c1ccc2c(c1)cc(C1CC1)n2CCN1CCOCC1 [ACY-1035]
- Fold change vs veh, TMEM135: 0.99
